The text below walks through data of US20040023362A1, “Degradation of polycyclic aromatic hydrocarbons by microorganisms” (priority 2000, published 2004).

One test has as its system VUN 110,010. Nature of the test: Growth of PAH-degrading bacteria on a variety of carbon sources. In kind it is cell-based, Stenotrophomonas maltophilia. Conditions: substrate 50 mg l^−1 (or vapor phase), sole carbon source. Here is the method: (§1) Gram staining and biochemical tests for bacterial identification were performed according to Collin et al. (1989) following growth in nutrient broth or nutrient agar. […] Compounds tested were added to BSM as a sole carbon and energy source at 50 mg l^−1, and volatile compounds were supplied to the culture in the vapour phase. […] The cells were collected and washed in BSM and the resuspended cells were inoculated into BSM containing different carbon sources. Inoculated BSM without an added carbon source and uninoculated BSM plus carbon source were used as controls. Inocula for the PAH degradation tests were transferred directly from parent cultures, but inocula for other carbon sources were washed prior to inoculation.

The next test concerns VUN 110,012. The test is described as above. In kind it is cell-based, Stenotrophomonas maltophilia. Particulars: substrate 50 mg l^−1 (or vapor phase), sole carbon source. As to the method:
as §1

In the next test the test system is VUN 110,013. The class given is cell-based, Burkholderia sp. Particulars: substrate 50 mg l^−1 (or vapor phase), sole carbon source. As to the method:
as §1

A further test has as its system VUN 110,011. Nature of the test: Growth of PAH-degrading bacteria on a variety of carbon sources. Conditions: substrate 50 mg l^−1 (or vapor phase), sole carbon source. The class given is cell-based, Pseudomonas fluorescens. Here is the method:
as §1

Test [1] has as its system strains VUN 10,010, VUN 10,011 and VUN 10,012. Nature of the test: Growth of all the strains on compounds as sole carbon and energy source. In kind it is cell-based. Particulars: supplied at 50 mg l^−1. Here is the method:
as §1

The test system of test [2] is S. maltophilia VUN 10,010. Nature of the test: Degradation of single high molecular weight PAHs by high initial populations of VUN 10,010 with surfactant. The class given is cell-based, Stenotrophomonas maltophilia. As to the method:
[…] Incubations contained a single PAH in BSM at 30° C. The PAH remaining was calculated as a percentage relative to the PAH recovered from the […]. Averages for the test cultures are from triplicate experiments.
Tergitol NP-10 (5 and 10 g l^−1) was added to BSM broths each containing a single high molecular weight PAH.

[3] abbreviates: Tergitol NP-10 5 g l^−1, Single PAH.
The mark [4] stands for this setting: Tergitol NP-10 10 g l^−1, Single PAH.

With `Oc1c(Cl)c(Cl)cc(Cl)c1Cl` [2,3,5,6-tetrachloro-phenol], the Growth entry in the test on VUN 110,010, in the test with VUN 110,012, with VUN 110,013 and in the test with VUN 110,011 was “+” throughout.

Take `Oc1cc(Cl)c(Cl)cc1Cl` [2,4,5-trichloro-phenol]: the Growth result in the test on VUN 110,010, in the test on VUN 110,012, in the test with VUN 110,013 and in the test with VUN 110,011 was “+” each time.

Regarding `Oc1cc(Cl)ccc1Cl` [2,5-dichlorophenol], the Growth result with VUN 110,010, in the test on VUN 110,012, in the test with VUN 110,013 and with VUN 110,011 was “+” each time. Besides, the “growth on compound as the sole carbon and energy source” value (“growth on compound” for short) in test [1] is recorded as “grew”.

With `Oc1ccc(Cl)cc1` [4-chlorophenol], the Growth result in the test with VUN 110,010 was “+”; in the test with VUN 110,012, “+”; in the test with VUN 110,013, “+”; in the test on VUN 110,011 it was “−”. Further, the “growth on compound” value in test [1] was “grew”.

Consider `O=[N+]([O-])c1ccc(O)cc1` [4-nitrophenol], for which the Growth entry with VUN 110,010, in the test on VUN 110,012, in the test on VUN 110,013 and in the test with VUN 110,011 was “−” in each case.

Turning to `c1ccccc1` [Benzene], the Growth entry with VUN 110,010, with VUN 110,012, with VUN 110,013 and in the test on VUN 110,011 was “+” each time. Also, the “growth on compound” value in test [1] is on record as “grew”.

On to `O=C(O)c1ccccc1` [Benzoic acid], for which the Growth result in the test with VUN 110,010, in the test on VUN 110,012, in the test on VUN 110,013 and with VUN 110,011 was “+” in each case. Moreover, in test [1], the “growth on compound” value is “grew”.

In the case of `Oc1ccccc1O` [Catechol], the Growth entry in the test on VUN 110,010, with VUN 110,012, in the test with VUN 110,013 and in the test with VUN 110,011 was “+” throughout. Also, the “growth on compound” value in test [1] was “grew”.

Regarding `O=C(O)C=Cc1ccccc1` [Cinnamic acid], the Growth result is on record as “+” with VUN 110,010, “−” with VUN 110,012, “−” with VUN 110,013 and “−” in the test with VUN 110,011.

With `c1cc2ccc3ccc4ccc5ccc6ccc1c1c2c3c4c5c61` [Coronene, coronene], the “Maximum Specific Degradation Rate” value in test [2] (Brij 35 5 g l^−1, Single PAH) is recorded as 0.79 mg PAH degraded mg^−1 protein day^−1; in test [2] (Brij 35 10 g l^−1, Single PAH) it was 1.19 mg PAH degraded mg^−1 protein day^−1; in test [2] (No Surfactant, Single PAH), 0.75 mg PAH degraded mg^−1 protein day^−1; in test [2] (setting [3]), 0.98 mg PAH degraded mg^−1 protein day^−1; in test [2] (setting [4]) it was 0.79 mg PAH degraded mg^−1 protein day^−1. Further, the “percentage change in maximum specific degradation rate due to surfactant addition” value is reported as “+5%” in test [2] (Brij 35 5 g l^−1, Single PAH); “+59%” in test [2] (Brij 35 10 g l^−1, Single PAH); “+31%” in test [2] (setting [3]); “+5%” in test [2] (setting [4]). Further, in test [2] (Tergitol NP-10 5 and 10 g l^−1, high initial cell population), the “PAH degradation rate in the presence of surfactants” value is listed as “did not show improved PAH degradation rate”.

On to `CC(C)(CO)[C@@H](O)C(=O)NCCC(=O)O` [D-panthothenic acid], for which the Growth entry in the test on VUN 110,010, with VUN 110,012, with VUN 110,013 and in the test with VUN 110,011 was “+” throughout.

As to `O=C(O)c1cc(O)ccc1O` [Gentisic acid], the Growth result in the test with VUN 110,010, with VUN 110,012, with VUN 110,013 and in the test with VUN 110,011 was “+” each time.

On to `O=C(O)/C=C\C(=O)O` [Maleic acid], for which the Growth entry with VUN 110,010, with VUN 110,012, in the test with VUN 110,013 and with VUN 110,011 was “+” in each case.

With `O=[N+]([O-])c1ccccc1` [Nitrobenzene], the Growth entry is reported as “+” in the test on VUN 110,010, “+” in the test on VUN 110,012, “−” in the test with VUN 110,013 and “−” in the test with VUN 110,011.

`Oc1c(Cl)c(Cl)c(Cl)c(Cl)c1Cl` [Pentachlorophenol]: the Growth entry is listed as “+” in the test on VUN 110,010, “+” in the test on VUN 110,012, “−” in the test with VUN 110,013 and “−” with VUN 110,011.

Regarding `O=C(O)c1ccccc1C(=O)O` [Phthalic acid], the Growth entry with VUN 110,010, in the test on VUN 110,012, in the test with VUN 110,013 and with VUN 110,011 was “+” each time. In addition, the “growth on compound” value in test [1] was “grew”.

As for `O=C(O)c1ccc(O)c(O)c1` [Protocatechuic acid], the Growth result in the test with VUN 110,010, in the test with VUN 110,012, with VUN 110,013 and with VUN 110,011 was “+” in each case. For the same molecule, in test [1], the “growth on compound” value is “grew”.

With `CC(=O)C(=O)O` [Pyruvate], the Growth result with VUN 110,010, with VUN 110,012, with VUN 110,013 and in the test with VUN 110,011 was “+” each time.

Consider `O=C(O)c1ccccc1O` [Salicylic acid], for which the Growth entry with VUN 110,010, in the test with VUN 110,012, in the test with VUN 110,013 and with VUN 110,011 was “+” in each case. Besides, the “growth on compound” value in test [1] is listed as “grew”.

Consider `O=C(O)CCC(=O)O` [Succinic acid], for which the Growth entry with VUN 110,010, with VUN 110,012, in the test with VUN 110,013 and in the test on VUN 110,011 was “+” in each case. Further, the “growth on compound” value in test [1] is “grew”.

Take `Cc1ccccc1` [Toluene]: the Growth entry is “+” in the test with VUN 110,010, “+” with VUN 110,012, “−” in the test with VUN 110,013 and “+” in the test with VUN 110,011. In addition, the “growth on compound” value in test [1] is reported as “grew”.

Turning to `CCCCCCCCCCCCCCCC` [n-hexadecane], the Growth entry in the test with VUN 110,010, in the test with VUN 110,012, in the test on VUN 110,013 and in the test with VUN 110,011 was “+” each time. Also, the “growth on compound” value in test [1] is listed as “grew”.

`CCCCCCCC` [n-octane]: the Growth entry in the test on VUN 110,010, in the test with VUN 110,012, with VUN 110,013 and in the test on VUN 110,011 was “+” in each case. For the same molecule, the “growth on compound” value in test [1] is on record as “grew”.

As to `O=C(O)c1ccc(O)cc1` [p-hydroxybenzoic acid], the Growth entry with VUN 110,010, in the test on VUN 110,012, in the test on VUN 110,013 and with VUN 110,011 was “+” in each case. The “growth on compound” value in test [1] was “grew”.

As for Tween 20, the Growth result with VUN 110,010, in the test with VUN 110,012, in the test on VUN 110,013 and in the test on VUN 110,011 was “+” each time. Moreover, in test [1], the “growth on compound” value is on record as “grew”.

Take Tween 40: in test [1], the “growth on compound” value was “grew”.

For the molecule Tween 60, the “growth on compound” value in test [1] was “grew”.

Regarding Tween 80, the Growth result in the test with VUN 110,010, in the test with VUN 110,012, in the test with VUN 110,013 and in the test on VUN 110,011 was “+” in each case. For the same molecule, the “growth on compound” value in test [1] is “grew”.
